We go through two compounds from patent US11220518B2, “Substituted n-pyrimidin-4-yl-3-amino-pyrrolo[3,4-c]pyrazoles as protein kinase C inhibitors” (PFIZER INC., priority 2007, dated 2022).

pKi: −log10 of the molar value.

This assay has as its target Protein Kinase C beta 2 (PKCβII) (Homo sapiens (Human), UniProt P05771). Kind of assay: Protein Kinase C beta 2 (PKCβII) coupled PK/LDH spectrophotometric kinase assay. Format: biochemical. As to conditions: apparent Ki, ATP-competitive model (Morrison equation); 5 nM PKC, 0.1 mM ATP, 0.15 mM peptide, 30° C., pH 7.4; read-out: Ki app. The procedure: Protein Kinase C beta 2 (PKCβII) catalyzes the production of ADP from ATP that accompanies the phosphoryl transfer to the PKC Pseudosubstrate peptide (A→S, RFARKGSLRQKNV). This transfer is coupled to the oxidation of β-NADH through the activities of Pyruvate Kinase (PK) and Lactate Dehydrogenase (LDH). β-NADH conversion to NAD+ is monitored by the decrease in absorbance at 340 nm (e=6.22 cm^−1 mM^−1) using a Molecular Devices SPECTRA max PLUS spectrophotometer. […]
Steady-state kinetic parameters for the bi-bi kinase reaction were determined at saturating phospho-acceptor peptide substrate concentration (0.15 mM) by fitting initial velocity data to the Michaelis-Menten equation, v=Vmax[S]/(KM[S]) where v is the measured initial velocity, Vmax is the maximal enzyme velocity, [S] is the ATP substrate concentration, and KM is the Michealis constant for ATP. Enzyme turnover values (kcat) were calculated according to […], where [E] is the total enzyme concentration. Enzyme inhibition constants (apparent Ki values) were determined by fitting initial velocities at variable inhibitor concentrations to a model for ATP competitive inhibition based on the Morrison equation). […]

Protein Kinase C beta 2 (PKCβII), sequence (P05771 other isoform, or with tags, fused parts or gaps): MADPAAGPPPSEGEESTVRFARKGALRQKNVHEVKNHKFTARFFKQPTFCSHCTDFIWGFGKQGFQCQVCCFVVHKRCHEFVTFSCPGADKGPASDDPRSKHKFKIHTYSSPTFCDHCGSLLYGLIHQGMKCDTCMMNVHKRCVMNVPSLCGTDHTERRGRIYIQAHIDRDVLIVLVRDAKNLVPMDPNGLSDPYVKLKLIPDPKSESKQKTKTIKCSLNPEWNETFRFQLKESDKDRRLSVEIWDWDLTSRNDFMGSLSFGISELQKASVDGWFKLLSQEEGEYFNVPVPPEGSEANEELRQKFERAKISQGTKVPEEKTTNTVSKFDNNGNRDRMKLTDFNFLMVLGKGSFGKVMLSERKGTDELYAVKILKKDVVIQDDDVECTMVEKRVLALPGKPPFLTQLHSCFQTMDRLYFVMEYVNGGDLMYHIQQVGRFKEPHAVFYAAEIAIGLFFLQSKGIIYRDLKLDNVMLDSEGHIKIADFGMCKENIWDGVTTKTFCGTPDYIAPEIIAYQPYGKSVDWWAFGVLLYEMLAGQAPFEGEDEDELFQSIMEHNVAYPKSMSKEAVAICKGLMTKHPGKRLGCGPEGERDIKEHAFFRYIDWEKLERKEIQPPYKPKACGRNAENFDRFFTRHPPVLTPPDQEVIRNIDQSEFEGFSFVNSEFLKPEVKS

As to `CCOc1ncc(F)c(Nc2n[nH]c3c2CN(C(=O)N2C[C@@H](C)N(C)C[C@@H]2C)C3(C)C)n1` [Example K1, N-(2-ethoxy-5-fluoropyrimidin-4-yl)-6,6-dimethyl-5-{[(2S,5R)-2,4,5-trimethylpiperazin-1-yl]carbonyl}-1,4,5,6-tetrahydropyrrolo[3,4-c]pyrazol-3-amine], the pKi is 8.95. The same measure for `COCc1ncc(F)c(Nc2n[nH]c3c2CN(C(=O)N2CC(CCO)N(C)C[C@@H]2C)C3(C)C)n1` (single isomer, unassigned) [Example N3]: 7.81.

What is called pKi is −log10 of the Ki, conventionally taken in molar units.
